In brackets after ≈: the same amount, converted by molar mass.
Tests used:
[1] = system: S. infantis SS 08; assay type: cell-based; details: Brain Heart Infusion, estolate and RV11-RV15 previously hydrolized, unit assumed
[2] = system: Pr. vulgaris SS 10; assay type: cell-based; details: Brain Heart Infusion, estolate and RV11-RV15 previously hydrolized, unit assumed
[3] = Histological examination of bronchi after SO2 inhalation; assay type: in vivo, Sprague Dawley male rats; details: oral, 500 mg/kg; for histological appearance of non obstructed bronchi: free non obstructed
[4] = system: Staph. albus SS 04; assay type: cell-based; details: Brain Heart Infusion, estolate and RV11-RV15 previously hydrolized, unit assumed
[5] = system: Citrobacter SS 09; assay type: cell-based; details: Brain Heart Infusion, estolate and RV11-RV15 previously hydrolized, unit assumed
[6] = system: B. subtilis SS 127; assay type: cell-based; details: Brain Heart Infusion, estolate and RV11-RV15 previously hydrolized, unit assumed
[7] = Mucolytic activity: obstruction of the bronchial tract after SO2 inhalation; assay type: in vivo, Sprague Dawley male rats; details: oral, 500 mg/kg; SO2, 15 days
[8] = system: Staph. aureus SS 09; assay type: cell-based; details: Brain Heart Infusion, estolate and RV11-RV15 previously hydrolized, unit assumed
[9] = system: D. pneumoniae SS 23; assay type: cell-based; details: Brain Heart Infusion, estolate and RV11-RV15 previously hydrolized, unit assumed
[10] = system: Strept. haemolyticus SS 18; assay type: cell-based; details: Brain Heart Infusion, estolate and RV11-RV15 previously hydrolized, unit assumed
[11] = system: Cl. tetani SS 17; assay type: cell-based; details: Brain Heart Infusion, estolate and RV11-RV15 previously hydrolized, unit assumed
[12] = system: Kl. aerogenes SS 71; assay type: cell-based; details: Brain Heart Infusion, estolate and RV11-RV15 previously hydrolized, unit assumed
[13] = system: Br. abortus SS 7; assay type: cell-based; details: Brain Heart Infusion, estolate and RV11-RV15 previously hydrolized, unit assumed
[14] = system: Pr. mirabilis SS 09; assay type: cell-based; details: Brain Heart Infusion, estolate and RV11-RV15 previously hydrolized, unit assumed
[15] = system: B. anthranis SS 08; assay type: cell-based; details: Brain Heart Infusion, estolate and RV11-RV15 previously hydrolized, unit assumed
[16] = system: Staph. albus SS 03; assay type: cell-based; details: Brain Heart Infusion, estolate and RV11-RV15 previously hydrolized, unit assumed
[17] = system: Ps. aeruginosa SS 10; assay type: cell-based; details: Brain Heart Infusion, estolate and RV11-RV15 previously hydrolized, unit assumed
[18] = system: E. coli SS 07; assay type: cell-based; details: Brain Heart Infusion, estolate and RV11-RV15 previously hydrolized, unit assumed
[19] = system: Br. melitensis SS 19; assay type: cell-based; details: unit assumed
[20] = system: E. aerogenes SS 011; assay type: cell-based; details: Brain Heart Infusion, estolate and RV11-RV15 previously hydrolized, unit assumed
[21] = system: E. coli SS 05; assay type: cell-based; details: Brain Heart Infusion, estolate and RV11-RV15 previously hydrolized, unit assumed
[22] = system: C. diphtheriae SS 19; assay type: cell-based; details: Brain Heart Infusion, estolate and RV11-RV15 previously hydrolized, unit assumed
[23] = system: Citrobacter SS 05; assay type: cell-based; details: Brain Heart Infusion, estolate and RV11-RV15 previously hydrolized, unit assumed
[24] = system: S. lutea ATCC 9341; assay type: cell-based; details: Brain Heart Infusion, estolate and RV11-RV15 previously hydrolized, unit assumed
[25] = system: H. pertussis SS 03; assay type: cell-based; details: Brain Heart Infusion, estolate and RV11-RV15 previously hydrolized, unit assumed
[26] = system: E. coli SS 04; assay type: cell-based; details: Brain Heart Infusion, estolate and RV11-RV15 previously hydrolized, unit assumed
[27] = system: E. cloacae SS 07; assay type: cell-based; details: Brain Heart Infusion, estolate and RV11-RV15 previously hydrolized, unit assumed
[28] = system: Staph. aureus SS 08; assay type: cell-based; details: Brain Heart Infusion, estolate and RV11-RV15 previously hydrolized, unit assumed
[29] = system: S. heidelberg SS 18; assay type: cell-based; details: Brain Heart Infusion, estolate and RV11-RV15 previously hydrolized, unit assumed
[30] = system: Kl. pneumoniae SS 04; assay type: cell-based; details: Brain Heart Infusion, estolate and RV11-RV15 previously hydrolized, unit assumed
Excerpt: (§1) In the following table I the MIC/ml values are indicated corresponding to the lowest concentration capable of inducing a complete inhibition of the bacterial development.

[31] = system: H. tubercolosis SS 03; assay type: cell-based; details: Brain Heart Infusion, estolate and RV11-RV15 previously hydrolized, unit assumed
Excerpt: as §1

[32] = system: H. influentiae SS 02; assay type: cell-based; details: Brain Heart Infusion, estolate and RV11-RV15 previously hydrolized, unit assumed
[33] = system: Strept. faecalis SS 19; assay type: cell-based; details: Brain Heart Infusion, estolate and RV11-RV15 previously hydrolized, unit assumed
[34] = system: B. anthranis SS 09; assay type: cell-based; details: B. anthranis SS 09 (14 bis); Brain Heart Infusion; estolate and RV11-RV15 previously hydrolized; unit assumed
[35] = system: B. subtilis ATCC 6633; assay type: cell-based; details: Brain Heart Infusion, estolate and RV11-RV15 previously hydrolized, unit assumed
[36] = system: Staph. aureus SS 07; assay: Experimental infection induced by Staph. aureus SS 07; assay type: in vivo, Swiss white mice; details: os; Staph. aureus SS 07; mg/kg of erythromycin; survival after 7 days; 10080 min
How it was run: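 Swiss mice of 20 g infected parenterally with lethal amounts of Staph. aureus SS 07 or D. pneumoniae SS 23. Antibiotics were given at infection and again 6 and 24 h later. ED50 was derived from survival at 7 days.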

[37] = system: B. cereus ATCC 11778; assay type: cell-based; details: Brain Heart Infusion, estolate and RV11-RV15 previously hydrolized, unit assumed
[38] = Acute toxicity; assay type: in vivo; details: mouse, in vivo, po, 14400 min
Description: The acute toxicity was assessed in Swiss white mice by oral and intravenous route. The LD50 values have been calculated by the methods of Probits, starting from the mortality recorded 10 days after the treatment.

[39] = system: E. coli SS 06; assay type: cell-based; details: Brain Heart Infusion, estolate and RV11-RV15 previously hydrolized, unit assumed
[40] = system: Staph. aureus SS 07; assay type: cell-based; details: Brain Heart Infusion, estolate and RV11-RV15 previously hydrolized, unit assumed
[41] = system: Strept. haemolyticus SS 17; assay type: cell-based; details: Brain Heart Infusion, estolate and RV11-RV15 previously hydrolized, unit assumed
[42] = system: Staph. aureus SS 10; assay type: cell-based; details: Brain Heart Infusion, estolate and RV11-RV15 previously hydrolized, unit assumed

For `CCC(=O)O[C@H]1[C@H](O[C@@H]2[C@@H](C)[C@H](O[C@H]3C[C@@](C)(OC)[C@@H](O)[C@H](C)O3)[C@@H](C)C(=O)O[C@H](CC)[C@@](C)(O)[C@H](O)[C@@H](C)C(=O)[C@H](C)C[C@@]2(C)O)O[C@H](C)C[C@@H]1N(C)C` [RV13, erythromycin-monopropionate-thiazolidin-carboxylate], the MIC [1] was 100 mg/L (≈ 127 µM), the MIC [2] was > 200 mg/L and the “histological appearance of non obstructed bronchi” value [3] was “presence of bronchi having almost normal appearance”. The “histological appearance of obstructed bronchial tract” value [3] was “fully like that of the control animals”, the MIC [4] was 0.025 mg/L (≈ 0.0316 µM) and the MIC [5] was > 200 mg/L. The MIC [6] was 0.025 mg/L (≈ 0.0316 µM), the “Partial obstruction (% incidence)” value [7] was 20% and the “Total obstruction, compact plug (% incidence)” value [7] was 20%. The “Total obstruction, nodular mass (% incidence)” value [7] was 6.66%, the “Total obstruction, pimply mass (% incidence)” value [7] was 13.33% and the MIC [8] was 0.1 mg/L (≈ 0.127 µM). The MIC [9] was 0.025 mg/L (≈ 0.0316 µM), the MIC [10] was 1.5 mg/L (≈ 1.9 µM) and the MIC [11] was 0.2 mg/L (≈ 0.253 µM). For the same molecule, the MIC [12] was 100 mg/L (≈ 127 µM), the MIC [13] was 6 mg/L (≈ 7.59 µM) and the MIC [14] was > 200 mg/L. The MIC [15] was 0.4 mg/L (≈ 0.506 µM), the MIC [16] was 0.05 mg/L (≈ 0.0633 µM) and the MIC [17] was 100 mg/L (≈ 127 µM). For the same molecule, the MIC [18] was 50 mg/L (≈ 63.3 µM), the MIC [19] was 3 mg/L (≈ 3.8 µM) and the MIC [20] was 50 mg/L (≈ 63.3 µM). For the same molecule, the MIC [21] was 50 mg/L (≈ 63.3 µM), the MIC [22] was 0.01 mg/L (≈ 0.0127 µM) and the MIC [23] was > 200 mg/L. It also gave an MIC [24] of 0.025 mg/L (≈ 0.0316 µM), an MIC [25] of 0.2 mg/L (≈ 0.253 µM) and an MIC [26] of 100 mg/L (≈ 127 µM). For the same molecule, the MIC [27] was > 200 mg/L, the MIC [28] was 0.05 mg/L (≈ 0.0633 µM) and the MIC [29] was 100 mg/L (≈ 127 µM). The MIC [30] was 100 mg/L (≈ 127 µM), the MIC [31] was 50 mg/L (≈ 63.3 µM) and the MIC [32] was 1.5 mg/L (≈ 1.9 µM). For the same molecule, the MIC [33] was 0.05 mg/L (≈ 0.0633 µM), the MIC [34] was 0.4 mg/L (≈ 0.506 µM) and the MIC [35] was 0.025 mg/L (≈ 0.0316 µM). For the same molecule, the “ED50 (reliability limits)” value [36] was 2.20 (2.44-1.99) mg/kg, the MIC [37] was 0.8 mg/L (≈ 1.01 µM) and the “LD50 (reliability limits)” value [38] was 3000 mg·kg. It also gave an MIC [39] of 50 mg/L (≈ 63.3 µM), an MIC [40] of 0.025 mg/L (≈ 0.0316 µM) and an MIC [41] of 1.5 mg/L (≈ 1.9 µM). For the same molecule, the MIC [42] was 0.1 mg/L (≈ 0.127 µM).
In the case of `CCC(=O)O[C@H]1[C@H](O[C@@H]2[C@@H](C)[C@H](O[C@H]3C[C@@](C)(OC)[C@@H](O)[C@H](C)O3)[C@@H](C)C(=O)O[C@H](CC)[C@@](C)(O)[C@H](O)[C@@H](C)C(=O)[C@H](C)C[C@@]2(C)O)O[C@H](C)C[C@@H]1N(C)C` [RV15, erythromycin monopropionate N-acetylcysteinate], the MIC [1] is reported as 100 mg/L (≈ 127 µM), the MIC [2] is reported as > 200 mg/L and the “histological appearance of non obstructed bronchi” value [3] is reported as “presence of bronchi having almost normal appearance”. The “histological appearance of obstructed bronchial tract” value [3] was “fully like that of the control animals”, the MIC [4] was 0.05 mg/L (≈ 0.0633 µM) and the MIC [5] was > 200 mg/L. For the same molecule, the MIC [6] was 0.025 mg/L (≈ 0.0316 µM), the “Partial obstruction (% incidence)” value [7] was 6.66% and the “Total obstruction, compact plug (% incidence)” value [7] was 20%. For the same molecule, the “Total obstruction, nodular mass (% incidence)” value [7] was 13.33%, the “Total obstruction, pimply mass (% incidence)” value [7] was 6.66% and the MIC [8] was 0.05 mg/L (≈ 0.0633 µM). The MIC [9] was 0.05 mg/L (≈ 0.0633 µM), the MIC [10] was 3 mg/L (≈ 3.8 µM) and the MIC [11] was 0.2 mg/L (≈ 0.253 µM). The MIC [12] was 100 mg/L (≈ 127 µM), the MIC [13] was 6 mg/L (≈ 7.59 µM) and the MIC [14] was > 200 mg/L. It also gave an MIC [15] of 0.4 mg/L (≈ 0.506 µM), an MIC [16] of 0.25 mg/L (≈ 0.316 µM) and an MIC [17] of 100 mg/L (≈ 127 µM). For the same molecule, the MIC [18] was 50 mg/L (≈ 63.3 µM), the MIC [19] was 3 mg/L (≈ 3.8 µM) and the MIC [20] was 50 mg/L (≈ 63.3 µM). The MIC [21] was 100 mg/L (≈ 127 µM), the MIC [22] was 0.02 mg/L (≈ 0.0253 µM) and the MIC [23] was > 200 mg/L. The MIC [24] was 0.01 mg/L (≈ 0.0127 µM), the MIC [25] was 0.2 mg/L (≈ 0.253 µM) and the MIC [26] was 50 mg/L (≈ 63.3 µM). For the same molecule, the MIC [27] was > 200 mg/L, the MIC [28] was 0.025 mg/L (≈ 0.0316 µM) and the MIC [29] was 100 mg/L (≈ 127 µM). It also gave an MIC [30] of 100 mg/L (≈ 127 µM), an MIC [31] of 50 mg/L (≈ 63.3 µM) and an MIC [32] of 1.5 mg/L (≈ 1.9 µM). It also gave an MIC [33] of 0.05 mg/L (≈ 0.0633 µM), an MIC [34] of 0.4 mg/L (≈ 0.506 µM) and an MIC [35] of 0.01 mg/L (≈ 0.0127 µM). The “ED50 (reliability limits)” value [36] was 2.10 (2.49-1.92) mg/kg, the MIC [37] was 0.4 mg/L (≈ 0.506 µM) and the “LD50 (reliability limits)” value [38] was 3000 mg·kg. For the same molecule, the MIC [39] was 25 mg/L (≈ 31.6 µM), the MIC [40] was 0.025 mg/L (≈ 0.0316 µM) and the MIC [41] was 1.5 mg/L (≈ 1.9 µM). For the same molecule, the MIC [42] was 0.05 mg/L (≈ 0.0633 µM).

From patent US4476120A, “Thiolic derivatives of erythromycin having therapeutic activity, and pharmaceutical compositions containing them” (Sigma Tau Indistrie Farmaceutiche Riunites, p.A, priority 1982, dated 1984)
